According to publication PMC11521309, “A novel 4-aminoquinoline chemotype with multistage antimalarial activity and lack of cross-resistance with PfCRT and PfMDR1 mutants” (PLOS Pathogens, 2024):
Values joined by “and” are separate entries in the source; they are usually repeats but may differ in a detail not shown here. Equal entries are not always repeated.

How the values were obtained:
[1] = test system: pool of barcoded P. falciparum lines (Dd2 and 3D7 backgrounds); assay: Resistome growth assay, pool of 51 barcoded lines; format: cell-based, Plasmodium falciparum; details: 3 x IC50 constant
Description: The resistome growth assay employs a parasite pool consisting of 51 barcoded lines including both Dd2 and 3D7 genetic backgrounds, with wild-type lines for both (S3 Table). Most lines used were derived from in vitro resistance selection experiments, with others having been CRISPR edited. All lines were barcoded via CRISPR editing of a 101bp barcode cassette into the non-essential pfpare locus (PF3D7_0709700). Parasites were cultured in RPMI-1640 medium supplemented with HEPES (5.94 g/L), NaHCO3 (2.1 g/L), glutamax (1×), hypoxanthine (50 mg/L), gentamycin ([…]), and AlbumaxII (5 g/L) at a […]. Parasite growth was monitored over 14 days by flow cytometry (Cytoflex, Beckman Coulter) by staining with 1× SYBR Green and 0.2 μM MitoTracker Deep Red. Parasitemia adjustments were made to maintain a healthy range of <5% parasitemia. Parasite cultures were harvested at day 14 and lysed by saponin (0.05%), with pellets washed twice with PBS. Barcodes were PCR amplified using 5 μL of parasite pellet and sequenced by Illumina amplicon sequencing.

P. falciparum Dd2^Dd2 = test system: P. falciparum Dd2^Dd2; design: key to Phenotype, Dd2^Dd2: S: sensitive; R: resistant; details: cited from earlier work
P. falciparum Dd2^T93S = test system: P. falciparum Dd2^T93S; design: key to Phenotype, Dd2^T93S: S: sensitive; R: resistant; details: cited from earlier work
P. falciparum Dd2^H97Y = test system: P. falciparum Dd2^H97Y; design: key: S: sensitive; R: resistant; details: ref [19],[20],[51]; cited from earlier work
P. falciparum Dd2^F145I = test system: P. falciparum Dd2^F145I; design: key to Phenotype, Dd2^F145I: S: sensitive; R: resistant; details: cited from earlier work
P. falciparum Dd2^I218F = test system: P. falciparum Dd2^I218F; design: key to Phenotype, Dd2^I218F: S: sensitive; R: resistant; details: cited from earlier work
P. falciparum Dd2^M343L = test system: P. falciparum Dd2^M343L; design: key to Phenotype, Dd2^M343L: S: sensitive; R: resistant; details: cited from earlier work
P. falciparum Dd2^G353V = test system: P. falciparum Dd2^G353V; design: key to Phenotype, Dd2^G353V: S: sensitive; R: resistant; details: cited from earlier work
P. falciparum Dd2^3D7 = test system: P. falciparum Dd2^3D7; design: key: S: sensitive; R: resistant; details: ref [19],[20],[51]; cited from earlier work
P. falciparum 7G8^7G8 = test system: P. falciparum 7G8^7G8; design: key to Phenotype, 7G8^7G8: S: sensitive; R: resistant; details: cited from earlier work
P. falciparum 7G8^F145I = test system: P. falciparum 7G8^F145I; design: key to Phenotype, 7G8^F145I: S: sensitive; R: resistant; details: cited from earlier work
P. falciparum 7G8^C350R = test system: P. falciparum 7G8^C350R; design: key to Phenotype, 7G8^C350R: S: sensitive; R: resistant; details: cited from earlier work
P. falciparum NF10^YF = test system: P. falciparum NF10^YF; design: method as in ref 1 Veiga et al. 2016; details: means ± SEM, N 6; ref 1 Veiga et al. 2016; read-out: IC50 NF10YF; cited from earlier work
P. falciparum NF10^NF = test system: P. falciparum NF10^NF; design: method as in ref 1 Veiga et al. 2016; details: means ± SEM, N 6; ref 1 Veiga et al. 2016; read-out: IC50 NF10NF; cited from earlier work
[2] = test system: P. berghei PbGFP-Luccon liver stage; assay: In vitro inhibition of liver stage infection of Huh-7 cells, bioluminescence; format: cell-based, Plasmodium berghei; details: 10 nM, positive control
Description: In vitro inhibition of Plasmodium liver stage infection was assessed using bioluminescence data from Huh-7 cells infected with a firefly-luciferase-expressing P. berghei line, PbGFP-Luccon, in the presence of various compound concentrations. […] One day before drug treatment and infection, 10^4 Huh-7 cells/well were seeded in 96-well plates. The medium was then replaced by an infection medium (culture medium supplemented with 50 μg/mL gentamycin and 0.8 μg/mL amphotericin B) containing desired concentrations of test compounds. Fresh sporozoites recovered from salivary glands of infected female Anopheles stephensi mosquitoes were added to seeded Huh-7 cells at a 1:1 proportion, followed by centrifugation at 1700g for 5 minutes and incubation for 46 hours at 37°C under 5% CO2. Compound toxicity against Huh-7 cells was assessed by measuring […] using the Alamar Blue assay (Invitrogen). IC50 values were calculated using nonlinear regression analysis (GraphPad Prism version 9).

PfCRT 7G8 isoform = assay: [3H]CQ uptake in PfCRT-containing proteoliposomes; format: biochemical, Plasmodium falciparum; details: 1 μM; PfCRT 7G8, 7G8^F145I and 7G8^C350R
Description: Purified PfCRT variants were reconstituted in preformed liposomes made of E. coli total lipids:cholesteryl hemisuccinate 97:3 (w/w) at a protein-to-lipid ratio of 1:150 (w/w). The lumen of the proteoliposomes was composed of 100 mM KPi, pH 7.5, and 2 mM β-mercaptoethanol. Uptake of [^3H]CQ (1 Ci/mmol) or [^3H]PPQ (1 Ci/mmol) was performed by diluting PfCRT-containing proteoliposomes (30 ng of PfCRTper reaction) in an uptake buffer containing 100 mM Tris/MES, pH 5.5, in the presence or absence of 1 μM of the test compounds. In addition, 1 μM valinomycin was added to the reaction to generate a K^+ diffusion potential-driven membrane potential (ΔΨ). […] Filters were dried and incubated in a scintillation cocktail, and the radioactivity captured on the filters was counted in a Hidex SL300 scintillation counter. The efficiency of detection was calculated with a standard curve of known concentrations of each radiolabeled compound, and this was used to transform decays per minute (dpm) into pmol. The nonspecific interaction of each compound with nitrocellulose filters was determined by measuring mock uptake in the absence of liposomes or proteoliposomes. These values (determined for each experiment) were used to calculate background uptake in liposomes or proteoliposomes. […]

[3] = Dd2Dd2, mean ± SEM, ref 1 (Ross et al., 2018)
[4] = Dd2T93S, mean ± SEM, ref 2 (Dhingra et al., 2019)
[5] = Dd2F145I, mean ± SEM, ref 1 (Ross et al., 2018)
[6] = Dd2I218F, mean ± SEM, ref 2 (Dhingra et al., 2019)
[7] = Dd2M343L, mean ± SEM, ref 1 (Ross et al., 2018)
[8] = Dd2G353V, mean ± SEM, ref 1 (Ross et al., 2018)

CNC(=O)c1ccc(-c2cnc3cnc(C(=O)N(C)c4ccc(Cl)cc4)cn23)cc1 [KDU691]
recrudescence of barcoded pool after [1]: 9 days and 7 days

Clc1ccc2c(N3CCN(CCCN4CCN(c5ccnc6cc(Cl)ccc56)CC4)CC3)ccnc2c1 [PPQ, piperaquine]
IC50 (P. falciparum Dd2^Dd2; [3]): 27.6 ± 3.1 nM
IC90 (P. falciparum Dd2^Dd2; [3]): 50.2 ± 4.2 nM
Phenotype, Dd2^Dd2 (P. falciparum Dd2^Dd2; ref [19],[20],[51]): S
IC50 (P. falciparum Dd2^T93S; [4]): 31.9 ± 5.6 nM
IC90 (P. falciparum Dd2^T93S; [4]): 6880 ± 3420 nM
Phenotype, Dd2^T93S (P. falciparum Dd2^T93S; ref [19],[20],[51]): R
Phenotype, Dd2^H97Y (P. falciparum Dd2^H97Y): R
IC50 (P. falciparum Dd2^F145I; [5]): 65.3 ± 3.1 nM
IC90 (P. falciparum Dd2^F145I; [5]): 5770 ± 666 nM
Phenotype, Dd2^F145I (P. falciparum Dd2^F145I; a: sensitized to CQ compared to the parental line but not fully sensitive, ref [19],[20],[51]): R
IC50 (P. falciparum Dd2^I218F; [6]): 42 ± 20.8 nM
IC90 (P. falciparum Dd2^I218F; [6]): 8600 ± 1660 nM
Phenotype, Dd2^I218F (P. falciparum Dd2^I218F; ref [19],[20],[51]): R
IC50 (P. falciparum Dd2^M343L; [7]): 37.6 ± 4.8 nM
IC90 (P. falciparum Dd2^M343L; [7]): 93.1 ± 9.7 nM
Phenotype, Dd2^M343L (P. falciparum Dd2^M343L; ref [19],[20],[51]): R
IC50 (P. falciparum Dd2^G353V; [8]): 31.8 ± 7.4 nM
IC90 (P. falciparum Dd2^G353V; [8]): 3740 ± 1980 nM
Phenotype, Dd2^G353V (P. falciparum Dd2^G353V; ref [19],[20],[51]): R
Phenotype, Dd2^3D7 (P. falciparum Dd2^3D7): S
IC50 (P. falciparum 7G8^7G8; 7G87G8, mean ± SEM, ref 3 (Kim et al., 2019)): 21.4 ± 1 nM
Phenotype, 7G8^7G8 (P. falciparum 7G8^7G8; ref [19],[20],[51]): S
IC50 (P. falciparum 7G8^F145I; 7G8F145I, mean ± SEM, ref 3 (Kim et al., 2019)): 28.7 ± 1 nM
Phenotype, 7G8^F145I (P. falciparum 7G8^F145I; ref [19],[20],[51]): R
IC50 (P. falciparum 7G8^C350R; 7G8C350R, mean ± SEM, ref 3 (Kim et al., 2019)): 36.5 ± 2 nM
Phenotype, 7G8^C350R (P. falciparum 7G8^C350R; ref [19],[20],[51]): R
IC50 (P. falciparum NF10^YF): 41.8 ± 3.4 nM
IC50 (P. falciparum NF10^NF): 35.4 ± 2.1 nM

O=C1C(O)=C([C@H]2CC[C@H](c3ccc(Cl)cc3)CC2)C(=O)c2ccccc21 [atovaquone]
effect on hepatic infection [2]: almost completely ablated infection
competitive inhibition of [3H]CQ or [3H]PPQ transport (PfCRT 7G8 isoform): No competitive inhibition

CCc1nc(N)nc(N)c1-c1ccc(Cl)cc1 [pyrimethamine]
competitive inhibition of [3H]CQ or [3H]PPQ transport (PfCRT 7G8 isoform): No competitive inhibition
